{
  "source": "paper PMC7054748",
  "about": "“The identification and characterisation of autophagy inhibitors from the published kinase inhibitor sets” (Biochemical Journal, 2020)",
  "key": {"LC3 flux in U2OS cells": {"tested_on": "LC3 flux in U2OS cells", "assay": "Autophagic flux: LC3-II western blot with/without BafA1 in U2OS cells", "type": "cell-based, human", "description": "(§1) U2OS (human osteosarcoma-derived) cells were cultured in DMEM supplemented with 10% foetal bovine serum, 100 U/ml Penicillin and […] L-glutamine. Cells were pre-treated with compounds at the indicated concentrations for 60 min followed by treatments with EBSS or EBSS combined with/without 50 nM Bafilomycin A1 (Enzo Life Sciences) for a further 60 or 120 min with/without inhibitors, as indicated in figures/figure legends.\n(§2) Prior to western blot analysis, cells were washed twice in ice-cold PBS and lysed in buffer containing 50 mM HEPES pH 7.4, 150 mM NaCl, 1 mM EDTA, 10% Glycerol, 0.5% NP-40, 1 mM DTT, supplemented with phosphatase inhibitors (1.15 mM sodium molybdate, 4 mM sodium tartrate, 0.01 M β-glycerophosphate, 1 mM sodium fluoride, 1 mM sodium orthovanadate) and protease inhibitor tablets (Roche) according to manufacturer's instructions. Lysates were then spun at 20 000×g for 10 min and the supernatant was collected for protein content estimation using Protein Assay Dye Reagent Concentrate from Bio-Rad. 4× LDS was added to the lysate (final dilution 1×) prior to heating at 95°C for 5 min. Electrophoresis and transfer to PVDF membranes was performed using standard protocols. Membranes were blocked in 5% milk in TBS-T prior to incubation with primary antibodies (in 5% milk/TBS-T for ULK1, pS555 (human S556) ULK1, pS757 (human S758) ULK1, pS318-ATG13, ATG13, and in 5% BSA/TBS-T for LC3 and α-Tubulin) under rotation overnight at 4°C followed by washes in TBS-T and incubation with HRP-conjugated secondary antibodies (in 5% milk in TBS-T) for 60 min at room temperature. Membranes were washed in TBS-T before application of ECL reagent (GE healthcare) and development on hypersensitive X-ray films (GE healthcare) (Figures 5A, 6C and Supplementary Figure S7C) or using BIO-RAD Clarity^TM western blotting substrate (Supplementary Figure S6C and Supplementary Figure S7A) and a BIO-RAD ChemiDoc^TM imaging system.\n(§3) Quantification of western blots was performed with band densitometry analysis using ImageJ. Quantification of LC3 puncta was performed using either the ITCN plugging in ImageJ or Volocity. One-way or two-way Anova (using GraphPad Prism) followed by a post-hoc test, was used for statistical analysis of western blots and immunofluorescence as indicated in figure legends."}, "AMPK (ULK1 pS556)": {"tested_on": "AMPK (ULK1 pS556)", "assay": "Upstream AMPK activity: ULK1 pS556 western blot in U2OS cells", "type": "cell-based, human", "description": "as §1\nas §2, with “Lysates” for “Prior to western blot analysis, cells were washed twice in ice-cold PBS and lysed in buffer containing 50 mM HEPES pH 7.4, 150 mM NaCl, 1 mM EDTA, 10% Glycerol, 0.5% NP-40, 1 mM DTT, supplemented with phosphatase inhibitors (1.15 mM sodium molybdate, 4 mM sodium tartrate, 0.01 M β-glycerophosphate, 1 mM sodium fluoride, 1 mM sodium orthovanadate) and protease inhibitor tablets (Roche) according to manufacturer's instructions. Lysates”\nas §3"}, "LC3 puncta in U2OS cells": {"tested_on": "LC3 puncta in U2OS cells", "assay": "Endogenous LC3 puncta immunofluorescence in U2OS cells", "type": "cell-based, human", "settings": "for Enlarged/stalled LC3 puncta (autophagosomes) phenotype: 2 µM MRT68921, 5 µM others, 60 min pre-treatment then 120 min EBSS", "description": "as §1\nPrior to immunofluorescence, cells were grown on glass coverslips to ∼60% confluency. Cells were washed in PBS prior to fixation with 3.7% PFA/10 mM HEPES pH 7.0 at room temperature for 20 min. PFA was quenched using DMEM/10 mM HEPES pH 7.0/0.02% NaN3, followed by permeabilisation with 0.2% NP-40 in PBS for 5 min, followed by blocking with 1% BSA/PBS/0.02% NaN3. Primary antibody incubation was at room temperature for 60 min, followed by two 10-minute washes, then fluorescent secondary antibody incubation for 30 min and further washes (all in blocking buffer) before mounting onto glass slides. A wide field Nikon TS microscope was used for image capturing.\nas §3"}, "[1]": {"tested_on": "kinases (human kinome panel)", "design": "method as in ChEMBL database", "settings": "value = the kinase inhibited over 50%; ref ChEMBL database; cited from earlier work"}, "mTOR (ULK1 pS758)": {"tested_on": "mTOR (ULK1 pS758)", "assay": "Upstream mTOR activity: ULK1 pS758 western blot in U2OS cells", "type": "cell-based, human", "description": "as §1\nas §2, with “Lysates” for “Prior to western blot analysis, cells were washed twice in ice-cold PBS and lysed in buffer containing 50 mM HEPES pH 7.4, 150 mM NaCl, 1 mM EDTA, 10% Glycerol, 0.5% NP-40, 1 mM DTT, supplemented with phosphatase inhibitors (1.15 mM sodium molybdate, 4 mM sodium tartrate, 0.01 M β-glycerophosphate, 1 mM sodium fluoride, 1 mM sodium orthovanadate) and protease inhibitor tablets (Roche) according to manufacturer's instructions. Lysates”\nas §3"}, "ULK1": {"target": "T1, ULK1 (Homo sapiens, UniProt O75385)", "T1 construct": "purchased MRC PPU Reagents and Services, Dundee, Scotland", "T1 sequence (O75385 1-1050)": "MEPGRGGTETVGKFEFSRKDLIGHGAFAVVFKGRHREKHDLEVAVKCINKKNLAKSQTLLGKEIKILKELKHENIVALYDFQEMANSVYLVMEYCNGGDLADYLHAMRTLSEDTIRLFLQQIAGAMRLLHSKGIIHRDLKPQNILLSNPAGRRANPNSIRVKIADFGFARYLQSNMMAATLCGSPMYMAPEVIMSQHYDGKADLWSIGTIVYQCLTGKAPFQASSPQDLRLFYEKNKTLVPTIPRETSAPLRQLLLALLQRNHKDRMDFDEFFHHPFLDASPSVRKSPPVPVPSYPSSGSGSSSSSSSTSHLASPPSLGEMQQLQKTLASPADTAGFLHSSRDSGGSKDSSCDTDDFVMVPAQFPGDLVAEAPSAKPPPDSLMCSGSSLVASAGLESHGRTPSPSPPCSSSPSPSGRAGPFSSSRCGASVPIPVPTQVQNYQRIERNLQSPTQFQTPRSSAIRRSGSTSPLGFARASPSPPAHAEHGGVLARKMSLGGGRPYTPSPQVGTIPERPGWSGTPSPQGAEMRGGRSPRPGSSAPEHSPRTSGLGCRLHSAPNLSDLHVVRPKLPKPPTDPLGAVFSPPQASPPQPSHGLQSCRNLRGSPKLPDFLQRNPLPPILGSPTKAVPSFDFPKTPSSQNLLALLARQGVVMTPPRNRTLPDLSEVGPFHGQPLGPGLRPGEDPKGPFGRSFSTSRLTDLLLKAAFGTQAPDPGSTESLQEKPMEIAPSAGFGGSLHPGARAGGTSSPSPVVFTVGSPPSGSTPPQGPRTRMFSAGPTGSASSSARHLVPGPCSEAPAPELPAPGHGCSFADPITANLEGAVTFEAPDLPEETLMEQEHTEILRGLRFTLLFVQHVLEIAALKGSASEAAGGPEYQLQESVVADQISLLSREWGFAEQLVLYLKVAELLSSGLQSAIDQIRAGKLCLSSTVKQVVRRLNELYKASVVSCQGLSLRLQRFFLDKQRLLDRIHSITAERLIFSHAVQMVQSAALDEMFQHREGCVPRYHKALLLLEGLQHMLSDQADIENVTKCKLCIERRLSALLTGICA", "assay": "ULK1 ADP Hunter Plus kinase activity assay", "type": "biochemical"}, "ULK1 (pS318 ATG13)": {"tested_on": "ULK1 (pS318 ATG13)", "assay": "Cellular ULK1 kinase activity: pS318 ATG13 western blot in U2OS cells", "type": "cell-based, human", "settings": "for Cellular ULK1 inhibition compared with GW837331X and GW406108X: 2 µM MRT68921, 5 µM SBI0206965, 120 min EBSS, U2OS western blot (Supplementary Figure S6C)", "description": "as §1\nas §2, with “Lysates” for “Prior to western blot analysis, cells were washed twice in ice-cold PBS and lysed in buffer containing 50 mM HEPES pH 7.4, 150 mM NaCl, 1 mM EDTA, 10% Glycerol, 0.5% NP-40, 1 mM DTT, supplemented with phosphatase inhibitors (1.15 mM sodium molybdate, 4 mM sodium tartrate, 0.01 M β-glycerophosphate, 1 mM sodium fluoride, 1 mM sodium orthovanadate) and protease inhibitor tablets (Roche) according to manufacturer's instructions. Lysates”\nas §3"}, "AMPK α1β2ɣ1": {"target": "AMPK α1β2ɣ1 (Homo sapiens, UniProt O43741+P54619+Q13131)", "sequence (Q13131 whole entry)": "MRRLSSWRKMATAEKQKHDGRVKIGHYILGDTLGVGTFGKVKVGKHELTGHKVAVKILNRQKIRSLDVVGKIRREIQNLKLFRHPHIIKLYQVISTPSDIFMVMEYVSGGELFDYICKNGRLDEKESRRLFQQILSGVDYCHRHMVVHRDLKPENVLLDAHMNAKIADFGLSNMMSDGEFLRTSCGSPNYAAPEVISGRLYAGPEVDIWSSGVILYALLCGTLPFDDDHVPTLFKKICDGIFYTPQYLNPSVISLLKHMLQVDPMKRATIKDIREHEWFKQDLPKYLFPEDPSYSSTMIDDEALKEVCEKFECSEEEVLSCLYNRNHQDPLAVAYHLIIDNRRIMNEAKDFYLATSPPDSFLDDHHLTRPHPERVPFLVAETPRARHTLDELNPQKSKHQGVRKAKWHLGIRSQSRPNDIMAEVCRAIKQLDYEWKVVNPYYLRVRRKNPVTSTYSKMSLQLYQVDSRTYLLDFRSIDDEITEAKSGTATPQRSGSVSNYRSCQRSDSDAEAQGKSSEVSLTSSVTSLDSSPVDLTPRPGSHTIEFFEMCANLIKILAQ", "sequence (O43741 whole entry partner)": "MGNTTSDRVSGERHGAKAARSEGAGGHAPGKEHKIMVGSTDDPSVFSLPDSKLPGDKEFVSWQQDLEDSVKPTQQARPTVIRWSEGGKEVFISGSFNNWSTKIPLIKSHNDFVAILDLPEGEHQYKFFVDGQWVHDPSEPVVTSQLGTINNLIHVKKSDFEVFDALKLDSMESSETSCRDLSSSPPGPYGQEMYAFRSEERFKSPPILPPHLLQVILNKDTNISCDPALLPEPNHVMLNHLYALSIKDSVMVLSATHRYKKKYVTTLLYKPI", "sequence (P54619 whole entry partner)": "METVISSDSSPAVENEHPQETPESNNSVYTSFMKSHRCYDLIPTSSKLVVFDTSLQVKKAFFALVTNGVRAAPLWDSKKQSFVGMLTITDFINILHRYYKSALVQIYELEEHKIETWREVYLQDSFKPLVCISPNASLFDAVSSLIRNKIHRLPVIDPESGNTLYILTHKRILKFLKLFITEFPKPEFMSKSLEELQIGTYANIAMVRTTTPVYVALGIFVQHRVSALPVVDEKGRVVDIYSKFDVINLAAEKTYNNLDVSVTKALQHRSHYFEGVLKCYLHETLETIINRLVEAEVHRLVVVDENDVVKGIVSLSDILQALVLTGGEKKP", "assay": "AMPK ADP Hunter Plus kinase activity assay"}, "VPS34": {"target": "VPS34 (Homo sapiens, UniProt Q8NEB9)", "sequence (Q8NEB9 whole entry)": "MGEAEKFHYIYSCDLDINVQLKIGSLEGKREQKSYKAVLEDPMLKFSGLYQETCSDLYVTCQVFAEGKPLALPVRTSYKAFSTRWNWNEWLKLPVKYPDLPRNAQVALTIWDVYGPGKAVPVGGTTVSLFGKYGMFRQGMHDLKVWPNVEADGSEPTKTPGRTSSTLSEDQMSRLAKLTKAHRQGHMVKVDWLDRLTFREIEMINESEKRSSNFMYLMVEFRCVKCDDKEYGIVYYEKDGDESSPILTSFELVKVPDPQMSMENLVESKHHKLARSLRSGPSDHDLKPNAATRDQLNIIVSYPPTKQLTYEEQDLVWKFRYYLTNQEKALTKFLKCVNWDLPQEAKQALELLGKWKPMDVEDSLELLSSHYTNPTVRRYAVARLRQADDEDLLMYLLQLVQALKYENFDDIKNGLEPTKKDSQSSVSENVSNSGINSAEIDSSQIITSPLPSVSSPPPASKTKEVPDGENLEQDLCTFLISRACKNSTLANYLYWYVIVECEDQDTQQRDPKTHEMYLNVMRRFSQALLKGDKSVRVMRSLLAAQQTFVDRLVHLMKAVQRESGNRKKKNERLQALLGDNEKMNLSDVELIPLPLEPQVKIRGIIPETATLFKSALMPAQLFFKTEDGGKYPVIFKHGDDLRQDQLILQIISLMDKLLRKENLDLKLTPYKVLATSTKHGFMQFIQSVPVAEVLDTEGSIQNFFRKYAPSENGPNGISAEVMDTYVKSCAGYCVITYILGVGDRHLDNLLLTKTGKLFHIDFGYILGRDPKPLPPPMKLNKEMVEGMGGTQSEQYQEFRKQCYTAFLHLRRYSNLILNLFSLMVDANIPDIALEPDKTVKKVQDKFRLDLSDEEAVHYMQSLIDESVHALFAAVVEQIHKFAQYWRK", "assay": "VPS34 ADP Hunter Plus kinase activity assay", "settings": "IC50 against VPS34, resynthesized samples; mean potency in parenthesis, n = 5"}, "[2]": {"settings": "100 nM (VPS34-IN1 500 nM), 60 min pre-treatment, ± EBSS 60 min"}},
  "note": "Like-named read-outs stand apart in the source and are kept apart here.",
  "data": [
    {"smiles": "COc1cc(Nc2ncc3c(C)nc(-c4cccc(C(F)(F)F)c4)n3n2)cc(OC)c1OC", "note": "[GW837331X]", "values": [
      {"measurement": "Effect on starvation-induced LC3 flux", "setting": "LC3 flux in U2OS cells; 5 µM, 60 min pre-treatment then 60 min EBSS ± 50 nM BafA1, U2OS", "result": "significantly blocked"},
      {"measurement": "Effect on AMPK activity (ULK1 pS556 levels)", "setting": "AMPK (ULK1 pS556); 5 µM", "result": "without affecting mTOR or AMPK activity"},
      {"measurement": "Enlarged/stalled LC3 puncta (autophagosomes) phenotype", "setting": "LC3 puncta in U2OS cells", "result": "did not show this phenotype"},
      {"measurement": "Effect on EBSS-induced increase in LC3 puncta formation", "setting": "LC3 puncta in U2OS cells; 5 µM, EBSS", "result": "abolished"},
      {"measurement": "Kinases that are inhibited over 50% (descending order)", "setting": "[1]", "result": "NEK9 and PLK1 and FMS and SRC and MELK and EphB2 and EphA4"},
      {"measurement": "Effect on mTOR activity (ULK1 pS758 levels)", "setting": "mTOR (ULK1 pS758); 5 µM", "result": "without affecting mTOR or AMPK activity"},
      {"measurement": "IC50", "setting": "ULK1; original PKIS samples, concentration-dependent retest of screen hits, read-out: pIC50 against ULK1 (converted)", "result": "< 1000", "unit": "nM"},
      {"measurement": "IC50", "setting": "ULK1; resynthesized samples, mean potency in parenthesis, n = 5, read-out: IC50 against ULK1 (converted)", "result": 646, "unit": "nM"},
      {"measurement": "Mechanism of inhibition of ULK1 with respect to ATP", "setting": "ULK1; varying ATP below 600 µM, Michaelis–Menten and Lineweaver–Burk plots", "result": "primarily ATP competitive inhibition"},
      {"measurement": "Mechanism of inhibition of ULK1 with respect to MBP", "setting": "ULK1; varying MBP substrate", "result": "clear non-competitive inhibition"},
      {"measurement": "Effect on starvation-induced increase in pS318 ATG13", "setting": "ULK1 (pS318 ATG13); 5 µM, 60 min pre-treatment then 60 min EBSS, U2OS", "result": "significantly reduced"},
      {"measurement": "IC50", "setting": "AMPK α1β2ɣ1", "result": 2340, "unit": "nM"},
      {"measurement": "IC50", "setting": "VPS34", "result": "> 100000", "unit": "nM"}
    ]},
    {"smiles": "CN1CCc2cc(Nc3ncc(C4CC4)c(NCCCNC(=O)C4CCC4)n3)ccc2C1", "note": "[MRT68921, reference compound]", "values": [
      {"measurement": "Enlarged/stalled LC3 puncta (autophagosomes) phenotype", "setting": "LC3 puncta in U2OS cells", "result": "larger than those formed with EBSS alone"},
      {"measurement": "Cellular ULK1 inhibition compared with GW837331X and GW406108X", "setting": "ULK1 (pS318 ATG13)", "result": "inhibited ULK1 more potently"}
    ]},
    {"smiles": "CNC(=O)c1ccccc1Oc1nc(Nc2cc(OC)c(OC)c(OC)c2)ncc1Br", "note": "[SBI0206965, reference compound]", "values": [
      {"measurement": "Enlarged/stalled LC3 puncta (autophagosomes) phenotype", "setting": "LC3 puncta in U2OS cells", "result": "larger than those formed with EBSS alone"},
      {"measurement": "Cellular ULK1 inhibition compared with GW837331X and GW406108X", "setting": "ULK1 (pS318 ATG13)", "result": "inhibited ULK1 more potently"}
    ]},
    {"smiles": "CC(C)(O)CNc1ncc(-c2ccnc(Nc3ccnc(Cl)c3)n2)c(CC2CC2)n1", "note": "[VPS34-IN1, reference compound]", "values": [
      {"measurement": "Concentration blocking EBSS-induced autophagy (LC3) flux", "setting": "LC3 flux in U2OS cells; U2OS, EBSS + 50 nM BafA1, as low as, greater effect at 100 nM", "result": "≤ 10", "unit": "nM"},
      {"measurement": "Effect on AMPK activity (pS556 ULK1)", "setting": "AMPK (ULK1 pS556); [2]", "result": "unaffected"},
      {"measurement": "Effect on mTORC1 activity (pS758 ULK1)", "setting": "mTOR (ULK1 pS758); [2]", "result": "unaffected"}
    ]}
  ]
}
